Assay results published in the supplement of paper PMC10307832.

Tests used:
Test in all cases: relative viability (nuclei count vs DMSO), 5 days (fraction); higher = more cells survive
BI-2536 + Decitabine = compound: CC[C@@H]1C(=O)N(C)c2cnc(Nc3ccc(C(=O)NC4CCN(C)CC4)cc3OC)nc2N1C1CCCC1 [BI-2536] + Nc1ncn([C@H]2C[C@H](O)[C@@H](CO)O2)c(=O)n1 [Decitabine] (partner 2 µM)
How it was run: (§1)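 Medians of duplicate plates are given as relative viability. That measure is the nuclei count in treated wells divided by the count in vehicle wells. Counts were taken on 4× images of lung cancer cell lines in 1536-well plates, 5 days after pin-tool dosing the day after seeding with one drug alone or a fixed anchor-drug dose plus five library-drug doses (not always all listed) in √10 steps.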

NPK76-II-72-1 + AZD7762 = compound: CC1CC(=O)N(C2=CN=C(N=C2N1C3CCCC3)NC4=C(C=C(C=C4)C(=O)NC5CCN(CC5)C)OC)C [NPK76-II-72-1] + NC(=O)Nc1cc(-c2cccc(F)c2)sc1C(=O)N[C@H]1CCCNC1 [AZD7762] (partner 0.2 µM)
How it was run: as §1

BI-2536 + Crizotinib = compound: CC[C@@H]1C(=O)N(C)c2cnc(Nc3ccc(C(=O)NC4CCN(C)CC4)cc3OC)nc2N1C1CCCC1 [BI-2536] + C[C@@H](Oc1cc(-c2cnn(C3CCNCC3)c2)cnc1N)c1c(Cl)ccc(F)c1Cl [Crizotinib] (partner 1 µM)
How it was run: as §1

[1] = compound: CC1CC(=O)N(C2=CN=C(N=C2N1C3CCCC3)NC4=C(C=C(C=C4)C(=O)NC5CCN(CC5)C)OC)C [NPK76-II-72-1] + CC(=O)c1c(C)c2cnc(Nc3ccc(N4CCNCC4)cn3)nc2n(C2CCCC2)c1=O [Palbociclib] (partner 0.5 µM)
How it was run: as §1

Cell Line | relative viability (BI-2536 + Decitabine; first compound 0.01 µM) | relative viability (BI-2536 + Decitabine; first compound 0.03162 µM) | relative viability (BI-2536 + Decitabine; first compound 0.1 µM) | relative viability (BI-2536 + Decitabine; first compound 0.3162 µM) | relative viability (BI-2536 + Decitabine; first compound 1 µM) | relative viability (NPK76-II-72-1 + AZD7762; first compound 0.01 µM) | relative viability (NPK76-II-72-1 + AZD7762; first compound 0.03162 µM) | relative viability (NPK76-II-72-1 + AZD7762; first compound 0.1 µM) | relative viability (NPK76-II-72-1 + AZD7762; first compound 0.3162 µM) | relative viability (NPK76-II-72-1 + AZD7762; first compound 1 µM) | relative viability (BI-2536 + Crizotinib; first compound 0.01 µM) | relative viability (BI-2536 + Crizotinib; first compound 0.03162 µM) | relative viability (BI-2536 + Crizotinib; first compound 0.1 µM) | relative viability (BI-2536 + Crizotinib; first compound 0.3162 µM) | relative viability (BI-2536 + Crizotinib; first compound 1 µM) | relative viability ([1]; first compound 0.01 µM) | relative viability ([1]; first compound 0.03162 µM) | relative viability ([1]; first compound 0.1 µM) | relative viability ([1]; first compound 0.3162 µM) | relative viability ([1]; first compound 1 µM)
NCI-H1755 | 0.689 | 0.716 | 0.642 | 0.347 | 0.379 | 0.356 | 0.468 | 0.431 | 0.464 | 0.436 | 0.893 | 0.751 | 0.594 | 0.315 | 0.25 | 0.453 | 0.441 | 0.464 | 0.453 | 0.479
HCC-78 | 0.678 | 0.692 | 0.694 | 0.363 | 0.331 | 0.634 | 0.574 | 0.593 | 0.521 | 0.755 | 0.368 | 0.288 | 0.347 | 0.18 | 0.159 | 0.423 | 0.44 | 0.425 | 0.385 | 0.502
LOU-NH91 | 0.816 | 0.685 | 0.66 | 0.343 | 0.383 | 0.728 | 0.744 | 0.723 | 0.675 | 0.798 | 0.697 | 0.671 | 0.719 | 0.325 | 0.307 | 0.538 | 0.52 | 0.496 | 0.52 | 0.528
NCI-H3122 | 0.386 | 0.508 | 0.392 | 0.151 | 0.159 | 0.88 | 1 | 1.03 | 0.996 | 0.973 | 0.294 | 0.272 | 0.242 | 0.182 | 0.199 | 0.183 | 0.18 | 0.179 | 0.194 | 0.213
HCC-827 | 0.357 | 0.363 | 0.269 | 0.203 | 0.117 | 0.2 | 0.203 | 0.243 | 0.129 | 0.259 | 0.926 | 0.968 | 0.714 | 0.328 | 0.305 | 0.474 | 0.457 | 0.488 | 0.491 | 0.561
NCI-H1975 | 0.321 | 0.372 | 0.276 | 0.172 | 0.14 | 0.727 | 0.733 | 0.686 | 0.694 | 0.734 | 1.12 | 0.504 | 0.595 | 0.185 | 0.166 | 0.548 | 0.548 | 0.593 | 0.416 | 0.676
NCI-H1651 | 0.592 | 0.627 | 0.495 | 0.12 | 0.0817 | 0.436 | 0.449 | 0.471 | 0.377 | 0.501 | 0.85 | 0.889 | 0.81 | 0.358 | 0.101 | 0.512 | 0.535 | 0.483 | 0.48 | 0.558
NCI-H441 | 0.244 | 0.247 | 0.153 | 0.149 | 0.149 | 1.12 | 1.07 | 1.08 | 1.04 | 1.07 | 0.503 | 0.393 | 0.218 | 0.154 | 0.133 | 0.232 | 0.26 | 0.251 | 0.205 | 0.254
